For one molecule, MIC results are on record in ChEMBL document CHEMBL1127134, “Synthesis and antibacterial activity of (1R,5R,6R)-2-tert-butyl-6-(1-hydroxyethyl)oxapenem-3-carboxylic acid” (1993).

Common to all, as to type: functional
For experiment [1], the system named is Bacteroides fragilis. The experiment is described as follows: Minimum inhibitory concentration required for the antibacterial activity against Bacillus fragilis DSM 2151.
For experiment [2], the system named is Bacteroides fragilis. The experiment is described as follows: Minimum inhibitory concentration required for the antibacterial activity against Bacillus fragilis ES 25.
Experiment [3] relates to Bacteroides fragilis. The experiment is described as follows: Minimum inhibitory concentration required for the antibacterial activity against Bacillus fragilis Kr 1 TV.
Experiment [4] has as its system Parabacteroides distasonis. The experiment is described as follows: Minimum inhibitory concentration required for the antibacterial activity against Bacillus distasonis Kr.
The subject of another experiment is Clostridium perfringens. Description: Minimum inhibitory concentration required for the antibacterial activity against Clostridium perfringens 24072.
The test system of a further experiment is Clostridium butyricum. The experiment is described as follows: Minimum inhibitory concentration required for the antibacterial activity against Clostridium butyricum.
In the next experiment the test system is Enterobacter cloacae. Description: Minimum inhibitory concentration required for the antibacterial activity against Enterobacter cloacae 56 US.
Experiment [5] has as its system Klebsiella. Description: Minimum inhibitory concentration required for the antibacterial activity against Klebsiella 6097.
The subject of experiment [6] is Klebsiella. Description: Minimum inhibitory concentration required for the antibacterial activity against Klebsiella 63.
The subject of the next experiment is Pseudomonas aeruginosa. The experiment is described as follows: Minimum inhibitory concentration required for the antibacterial activity against Pseudomonas aeruginosa Walter.
The subject of a further experiment is Proteus vulgaris. The experiment is described as follows: Minimum inhibitory concentration required for the antibacterial activity against Proteus vulgaris 9023.
The test system of experiment [7] is Fusobacterium necrophorum. Description: Minimum inhibitory concentration required for the antibacterial activity against Sphaerophorus necrophorus Kr.
A further experiment concerns Serratia. Description: Minimum inhibitory concentration required for the antibacterial activity against Serratia 16001.
Experiment [8] deals with Staphylococcus aureus. Description: Minimum inhibitory concentration required for the antibacterial activity against Staphylococcus aureus 13N Munchen.
For experiment [9], the system named is Staphylococcus aureus. Description: Minimum inhibitory concentration required for the antibacterial activity against Staphylococcus aureus 21b Belgium.
The subject of experiment [10] is Staphylococcus aureus. Description: Minimum inhibitory concentration required for the antibacterial activity against Staphylococcus aureus 25463.
In experiment [11] the test system is Staphylococcus aureus. The experiment is described as follows: Minimum inhibitory concentration required for the antibacterial activity against Staphylococcus aureus 25464.
In experiment [12] the test system is Staphylococcus aureus. The experiment is described as follows: Minimum inhibitory concentration required for the antibacterial activity against Staphylococcus aureus 77 Innsbruck.
In experiment [13] the test system is Staphylococcus aureus. Description: Minimum inhibitory concentration required for the antibacterial activity against Staphylococcus aureus 79B Innsbruck.
Experiment [14] relates to Staphylococcus aureus. Description: Minimum inhibitory concentration required for the antibacterial activity against Staphylococcus aureus 86 Innsbruck.
For experiment [15], the system named is Staphylococcus aureus. The experiment is described as follows: Minimum inhibitory concentration required for the antibacterial activity against Staphylococcus aureus 17N Munchen.
The next experiment concerns Clostridium septicum. The experiment is described as follows: Minimum inhibitory concentration required for the antibacterial activity against Clostridium septicum.
Experiment [16] has as its system Staphylococcus aureus. Description: Minimum inhibitory concentration required for the antibacterial activity against Staphylococcus aureus 48N Munchen.

SMILES strings stand for the structures.

Regarding `C[C@@H](O)[C@H]1C(=O)N2C(C(=O)[O-])=C(C(C)(C)C)O[C@H]12.[K+]`, the MIC against Bacteroides fragilis [1] worked out at 1 µg/mL; against Bacteroides fragilis [2], 2 µg/mL; against Bacteroides fragilis [3] it was 2 µg/mL; in experiment [4], 1 µg/mL; with Clostridium perfringens, 0.5 µg/mL; against Clostridium butyricum it was 2 µg/mL. In addition, the MIC was 16 µg/mL in the experiment on Enterobacter cloacae; 16 µg/mL against Klebsiella [5]; 4 µg/mL with Klebsiella [6]; above 128 µg/mL against Pseudomonas aeruginosa; 1 µg/mL in the experiment with Proteus vulgaris; 1 µg/mL in experiment [7]. For the same molecule, the MIC in the experiment on Serratia is 64 µg/mL; in the experiment with Staphylococcus aureus [8], 1.56 µg/mL; with Staphylococcus aureus [9], 12.5 µg/mL; in the experiment with Staphylococcus aureus [10] it was 1.56 µg/mL; with Staphylococcus aureus [11] it was 3.12 µg/mL; in the experiment on Staphylococcus aureus [12] it was at most 0.78 µg/mL. For the same molecule, the MIC was at most 0.78 µg/mL with Staphylococcus aureus [13]; at most 0.78 µg/mL in the experiment on Staphylococcus aureus [14]; 1.56 µg/mL against Staphylococcus aureus [15]; 2 µg/mL in the experiment on Clostridium septicum; at most 0.78 µg/mL in the experiment on Staphylococcus aureus [16].
